What all share (assay type): cell-based, Escherichia coli
In experiment [1] the test system is mutant strains BE101, BE102, BE103 compared to wild-type BE100. The experiment in a line: Comparison of antibiotic effectiveness in mutant (yfgL) strains versus wild-type strain. As to conditions: for resistance or sensitivity of the mutants: mutants vs parent strain BE100, by MIC. Here is the method:
The present inventions are directed to methods of identifying a compound having transglycosylase inhibitory activity. The method includes contacting the compound with cells having the wild type yfgL gene and then measuring the antibiotic effectiveness and contacting the compound with cells having the mutant yfgL gene and measuring the antibiotic effectiveness the compound.
(§1) MICs were determined against strains grown in LB medium in a standard microdilution format.
Some antibiotics, for example the β-lactams, show a decrease in their bactericidal effectiveness against slow-growing cells. E. Tuomanen et al., J. Gen. Microbiol. 132, 1297 (1986). […] R. Kerns et al., J. Am. Chem. Soc. 122, 12608 (2000).
Examples of transpeptidase inhibitors include, but are not limited to, ampicillin, penicillin or cefoxitin (p-lactams). Compounds that inhibit cytoplasmic steps of peptidoglycan synthesis include, but are not limited to, fosfomycin and cycloserine.

Experiment [2] concerns mutant strain BE101. The experiment in a line: MIC, standard microdilution in LB medium. As to conditions: 35° C., 22 hours. Here is the method:
(§2) The imp mutation alters the permeability of the outer membrane and confers sensitivity to vancomycin and its carbohydrate derivatives as well as to moenomycin. BE100 is an isolate of BAS849 (MC4100 ΔlamB106 imp 4213). B. A. Sampson et al., Genetics 122, 491(1989).
as §1

Experiment [3] relates to mutant strain BE102. The experiment in a line: MIC, standard microdilution in LB medium. The settings on record: 35° C., 22 hours. As for the experimental part: as §2, §1
Experiment [4] relates to mutant strain BE103. The experiment in a line: MIC, standard microdilution in LB medium. The settings on record: 35° C., 22 hours. As for the experimental part: as §2, §1
(Dilution methods test growth across graded concentrations, often in twofold steps.)

Experiment [5] has as its system wild-type strain BE100 (E. coli imp). The experiment in a line: MIC, standard microdilution in LB medium. As to conditions: 35° C., 22 hours. Here is the method:
as §2, §1

In experiment [6] the test system is mutant strain BE101. In words: Time-kill curves at MIC. As to conditions: mutant BE101, vancomycin […]. As for the experimental part:
(§3) FIGS. 1C and 1D represent time-kill curves of wild-type BE100 (C) and mutant strain BE101 (D) in the presence of antibiotics at their MICs. A standard microdilution assay was performed in LB. Samples were removed and serial dilutions were plated onto antibiotic-free agar after 15, 30, 60, 120 and 240 minutes of exposure to each antibiotic.

In experiment [7] the test system is wild-type BE100. The experiment in a line: Time-kill curves at MIC. The settings on record: wild-type BE100, vancomycin 0.8 μg/ml. Here is the method:
as §3

Converted amounts (≈) assume the structure as drawn.

In the case of `CC[C@H]1OC(=O)[C@H](C)[C@@H](O[C@H]2C[C@@](C)(OC)[C@@H](O)[C@H](C)O2)[C@H](C)[C@@H](O[C@@H]2O[C@H](C)C[C@H](N(C)C)[C@H]2O)[C@](C)(O)C[C@@H](C)C(=O)[C@H](C)[C@@H](O)[C@]1(C)O` [erythromycin], in experiment [1], the “resistance or sensitivity of the mutants” value is “sensitive”.
For `CN[C@H](CC(C)C)C(=O)N[C@H]1C(=O)N[C@@H](CC(N)=O)C(=O)N[C@H]2C(=O)N[C@H]3C(=O)N[C@H](C(=O)N[C@H](C(=O)O)c4cc(O)cc(O)c4-c4cc3ccc4O)[C@H](O)c3ccc(c(Cl)c3)Oc3cc2cc(c3O[C@@H]2O[C@H](CO)[C@@H](O)[C@H](O)[C@H]2O[C@H]2C[C@](C)(N)[C@H](O)[C@H](C)O2)Oc2ccc(cc2Cl)[C@H]1O` [Vancomycin], the “minimum inhibitory concentration (MIC)” value in experiment [2] is 1.6 µg/mL (≈ 1.1 µM); in experiment [3], 1.6 µg/mL (≈ 1.1 µM); in experiment [4], 1.6 µg/mL (≈ 1.1 µM); in experiment [5], 0.8 µg/mL (≈ 0.552 µM). Moreover, the “resistance or sensitivity of the mutants” value in experiment [1] is reported as “did not show any resistance”. Also, the “survival on exposure at MIC” value in experiment [6] and in experiment [7] was “prevented growth of all the strains but did not kill them” in each case.
As to `CC1(C)S[C@@H]2[C@H](NC(=O)Cc3ccccc3)C(=O)N2[C@H]1C(=O)O` [Penicillin G], the “minimum inhibitory concentration (MIC)” value in experiment [2] was determined as 3.2 µg/mL (≈ 9.57 µM); in experiment [3], 1.6 µg/mL (≈ 4.78 µM); in experiment [4], 3.2 µg/mL (≈ 9.57 µM); in experiment [5], 3.2 µg/mL (≈ 9.57 µM).
For the compound Teicoplanin, the “minimum inhibitory concentration (MIC)” value is 16 µg/mL in experiment [2], 3 µg/mL in experiment [3], 4 µg/mL in experiment [4] and 0.25 µg/mL in experiment [5]. Besides, the “step of peptidoglycan synthesis blocked, found using wild type/mutant yfgL assay” value in experiment [1] is reported as “block the transglycosylation step of peptidoglycan synthesis”. Moreover, in experiment [1], the “resistance or sensitivity of the mutants” value was “resistant”.
Regarding Moenomycin, the “minimum inhibitory concentration (MIC)” value in experiment [2] worked out at 1.6 µg/mL; in experiment [3] it was 0.8 µg/mL; in experiment [4] it was 3.2 µg/mL; in experiment [5], 0.03 µg/mL. The “times less active in resistant strains compared to the wild-type strain” value in experiment [1] (all three resistant strains vs wild-type) is given as 27-100 times.
For the compound Desleucyl chlorobiphenyl vancomycin, the “minimum inhibitory concentration (MIC)” value in experiment [2] is >125 µg/mL; in experiment [3], >125 µg/mL; in experiment [4] it was >125 µg/mL; in experiment [5], 25 µg/mL.
As for gentamicin, in experiment [1], the “resistance or sensitivity of the mutants” value was “sensitive”.

The values are drawn from patent publication US20040018582A1, “Genes and gene products that confer susceptibility to vancomycin derivative antibiotics and methods and assays for identifying bifunctional glycopeptide antibiotics using same” (priority 2001, published 2004).
